Source: patent US20230085307A1, “PYRIDAZINONE COMPOUND AND HERBICIDE” (NISSAN CHEMICAL CORPORATION, priority 2019, published 2023)

Tests used:
Italian ryegrass = assay: Test Example 5: herbicidal effect by foliage application, plastic box (Table 20, symbol K); type: in vivo, Italian ryegrass (Lolium multiflorum); conditions: foliage application, AAH 320 g/ha, evaluated three weeks after application
Procedure, shortened: (§1)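 Foliar spray test: emulsion formulation diluted in water to a set application rate, sprayed onto 14-day-old plants raised in diluvial soil at 25° C to 30° C under glass. Both herbicidal effect and crop effect rated visually three weeks later.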

oval-leafed pondweed = assay: Test Example 1: herbicidal activity, application before weed generation under submerged conditions (Table 16, symbol C); type: in vivo, oval-leafed pondweed (Monochoria vaginalis)
Procedure, shortened: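 Submerged Wagner pots (alluvial soil, 4 cm water) sown with weed seeds and planted with 2.5-leaf rice seedlings; emulsifiable concentrate diluted in water applied to water surface on sowing day. Held in greenhouse at 25-30 °C; injury scored 0-5 by herbicidal rate after three weeks.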

barnyard grass [1] = assay: Test Example 5: herbicidal effect by foliage application, plastic box (Table 20, symbol H); type: in vivo, barnyard grass (Echinochloa crus-galli); conditions: foliage application
Procedure, shortened: as §1

southern crabgrass [2] = assay: Test Example 5: herbicidal effect by foliage application, plastic box (Table 20, symbol F); type: in vivo, southern crabgrass (Digitaria ciliaris); conditions: foliage application
Procedure, shortened: as §1

wild oat = assay: Test Example 5: herbicidal effect by foliage application, plastic box (Table 20, symbol I); type: in vivo, wild oat (Avena fatua); conditions: foliage application, AAH 320 g/ha, evaluated three weeks after application
Procedure, shortened: as §1

velvetleaf [3] = assay: Test Example 5: herbicidal effect by foliage application, plastic box (Table 20, symbol M); type: in vivo, velvetleaf (Abutilon theophrasti); conditions: foliage application
Procedure, shortened: as §1

redroot pigweed [4] = assay: Test Example 5: herbicidal effect by foliage application, plastic box (Table 20, symbol N); type: in vivo, redroot pigweed (Amaranthus retroflexus); conditions: foliage application, AAH 320 g/ha, evaluated three weeks after application
Procedure, shortened: as §1

lambsquarters [5] = assay: Test Example 5: herbicidal effect by foliage application, plastic box (Table 20, symbol O); type: in vivo, lambsquarters (Chenopodium album); conditions: foliage application
Procedure, shortened: as §1

green foxtail [6] = assay: Test Example 5: herbicidal effect by foliage application, plastic box (Table 20, symbol G); type: in vivo, green foxtail (Setaria viridis); conditions: foliage application
Procedure, shortened: as §1

late watergrass = assay: Test Example 1: herbicidal activity, application before weed generation under submerged conditions (Table 16, symbol A); type: in vivo, late watergrass (Echinochloa oryzicola)
Source text: (§2) [Test Example 1] Herbicidal Activity Test by Application before Weed Generation under Submerged Conditions After alluvial soil was placed into 1/10000 are of Wagner pot, water was poured and mixed to form a submerged condition having a water depth of 4 cm. Seeds of late watergrass, Japanese bulrush, and oval-leafed pondweed were sowed in a mixed manner in the aforementioned pot, and then 2.5 leaf stage rice plant seedlings were transplanted thereto. On the day of sowing seeds, the emulsion agent of the compound of the present invention prepared according to Formulation Example 2 was diluted with water so as to achieve a predetermined herbicide amount, and the diluted emulsion agent was applied to the surface of the water. The pot was placed in a greenhouse at 25° C. to 30° C. for growth of the plants. Three weeks after the herbicide application, the effect of the herbicide on each plant was evaluated according to the following criteria. Evaluation Criteria 5: Herbicidal rate of 90% or more (almost completely withered) 4: Herbicidal rate of 70% or more and less than 90% 3: Herbicidal rate of 40% or more and less than 70% 2: Herbicidal rate of 20% or more and less than 40% 1: Herbicidal rate of 5% or more and less than 20% 0: Herbicidal rate of 5% or less (almost no effect)

blackgrass = assay: Test Example 5: herbicidal effect by foliage application, plastic box (Table 20, symbol J); type: in vivo, blackgrass (Alopecurus myosuroides); conditions: foliage application, AAH 320 g/ha, evaluated three weeks after application
Procedure, shortened: as §1

Japanese bulrush = assay: Test Example 1: herbicidal activity, application before weed generation under submerged conditions (Table 16, symbol B); type: in vivo, Japanese bulrush (Schoenoplectus juncoides)
Source text: as §2

persian speedwell = assay: Test Example 5: herbicidal effect by foliage application, plastic box (Table 20, symbol R); type: in vivo, Persian speedwell (Veronica persica); conditions: foliage application, AAH 320 g/ha, evaluated three weeks after application
Procedure, shortened: as §1

windgrass = assay: Test Example 5: herbicidal effect by foliage application, plastic box (Table 20, symbol L); type: in vivo, windgrass (Apera spica-venti); conditions: foliage application, AAH 320 g/ha, evaluated three weeks after application
Procedure, shortened: as §1

rice flat sedge = assay: Test Example 3: herbicidal effect by foliage application, Wagner pot (Table 18, symbol E); type: in vivo, rice flat sedge (Cyperus iria)
Procedure, shortened: (§3)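 Plants were sown in alluvial soil held under 0.1–0.5 cm standing water and grown 14 days in a greenhouse at 25–30 °C. An emulsifiable formulation, water-diluted to the set dose, was then sprayed onto the foliage, and effects were scored three weeks later using previously defined criteria.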

Chinese sprangletop = assay: Test Example 3: herbicidal effect by foliage application, Wagner pot (Table 18, symbol D); type: in vivo, chinese sprangletop (Leptochloa chinensis)
Procedure, shortened: as §3

barnyard grass [7] = assay: Test Example 3: herbicidal effect by foliage application, Wagner pot (Table 18, symbol H); type: in vivo, barnyard grass (Echinochloa crus-galli)
Procedure, shortened: as §3

lambsquarters [8] = assay: Test Example 4: herbicidal effect by soil treatment (Table 19, symbol O); type: in vivo, lambsquarters (Chenopodium album); conditions: amount of applied herbicide 320 g/ha
Procedure, shortened: (§4)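 Step 1: sow seeds in sterilized diluvial soil, cover ~1.5 cm. Step 2: spray diluted emulsion onto soil surface at predetermined rate. Step 3: greenhouse, 25–30° C, three weeks. Step 4: grade effect on each plant by earlier criteria.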

redroot pigweed [9] = assay: Test Example 4: herbicidal effect by soil treatment (Table 19, symbol N); type: in vivo, redroot pigweed (Amaranthus retroflexus); conditions: amount of applied herbicide 320 g/ha
Procedure, shortened: as §4

velvetleaf [10] = assay: Test Example 4: herbicidal effect by soil treatment (Table 19, symbol M); type: in vivo, velvetleaf (Abutilon theophrasti); conditions: amount of applied herbicide 320 g/ha
Procedure, shortened: as §4

green foxtail [11] = assay: Test Example 4: herbicidal effect by soil treatment (Table 19, symbol G); type: in vivo, green foxtail (Setaria viridis); conditions: amount of applied herbicide 320 g/ha
Procedure, shortened: as §4

barnyard grass [12] = assay: Test Example 4: herbicidal effect by soil treatment (Table 19, symbol H); type: in vivo, barnyard grass (Echinochloa crus-galli); conditions: amount of applied herbicide 320 g/ha
Procedure, shortened: as §4

southern crabgrass [13] = assay: Test Example 4: herbicidal effect by soil treatment (Table 19, symbol F); type: in vivo, southern crabgrass (Digitaria ciliaris); conditions: amount of applied herbicide 320 g/ha
Procedure, shortened: as §4

[14] = AAH 320 g/ha, evaluated three weeks after application
[15] = amount of applied herbicide 246 g/ha
[16] = amount of applied herbicide 370 g/ha
[17] = amount of applied herbicide 320 g/ha
[18] = 320 g/ha, three weeks after application

CSCCOc1cccc(-c2sc3ccc(F)cc3c2-c2c(O)c(C)nn(C)c2=O)c1 [2-273]
K: Italian ryegrass, herbicidal effect (criteria 0-5) (Italian ryegrass): 1 (Herbicidal rate of 5% or more and less than 20%)
Herbicidal effect on C: oval-leafed pondweed (grade 0-5) (oval-leafed pondweed; 320 g/ha applied herbicide): 0 (Herbicidal rate of 5% or less (almost no effect))
H: barnyard grass, herbicidal effect (criteria 0-5) (barnyard grass [1]; [14]): 0 (Herbicidal rate of 5% or less (almost no effect))
F: southern crabgrass, herbicidal effect (criteria 0-5) (southern crabgrass [2]; [14]): 0 (Herbicidal rate of 5% or less (almost no effect))
I: wild oat, herbicidal effect (criteria 0-5) (wild oat): 0 (Herbicidal rate of 5% or less (almost no effect))
M: velvetleaf, herbicidal effect (criteria 0-5) (velvetleaf [3]; [14]): 0 (Herbicidal rate of 5% or less (almost no effect))
N: redroot pigweed, herbicidal effect (criteria 0-5) (redroot pigweed [4]): 2 (Herbicidal rate of 20% or more and less than 40%)
O: lambsquarters, herbicidal effect (criteria 0-5) (lambsquarters [5]; [14]): 0 (Herbicidal rate of 5% or less (almost no effect))
G: green foxtail, herbicidal effect (criteria 0-5) (green foxtail [6]; [14]): 0 (Herbicidal rate of 5% or less (almost no effect))
Herbicidal effect on A: late watergrass (grade 0-5) (late watergrass; 320 g/ha applied herbicide): 3 (Herbicidal rate of 40% or more and less than 70%)
J: blackgrass, herbicidal effect (criteria 0-5) (blackgrass): 0 (Herbicidal rate of 5% or less (almost no effect))
Herbicidal effect on B: Japanese bulrush (grade 0-5) (Japanese bulrush; 320 g/ha applied herbicide): 0 (Herbicidal rate of 5% or less (almost no effect))
R: persian speedwell, herbicidal effect (criteria 0-5) (persian speedwell): 4 (Herbicidal rate of 70% or more and less than 90%)
L: windgrass, herbicidal effect (criteria 0-5) (windgrass): 0 (Herbicidal rate of 5% or less (almost no effect))

COc1cc(F)ccc1-c1sc2ccc(SC)cc2c1-c1c(O)c(C)nn(C)c1=O [2-376]
herbicidal effect on E: rice flat sedge (rice flat sedge; [15]): 3 (Herbicidal rate of 40% or more and less than 70%)
herbicidal effect on D: Chinese sprangletop (Chinese sprangletop; [15]): 3 (Herbicidal rate of 40% or more and less than 70%)
Herbicidal effect on C: oval-leafed pondweed (grade 0-5) (oval-leafed pondweed; 246 g/ha applied herbicide): 0 (Herbicidal rate of 5% or less (almost no effect))
herbicidal effect on H: barnyard grass (barnyard grass [7]; [15]): 5 (Herbicidal rate of 90% or more (almost completely withered))
Herbicidal effect on A: late watergrass (grade 0-5) (late watergrass; 246 g/ha applied herbicide): 3 (Herbicidal rate of 40% or more and less than 70%)
Herbicidal effect on B: Japanese bulrush (grade 0-5) (Japanese bulrush; 246 g/ha applied herbicide): 0 (Herbicidal rate of 5% or less (almost no effect))

CCCC(=O)Oc1c(C)nn(C)c(=O)c1-c1c(-c2ccccc2OCC)sc2cc(OC)c(-c3ccccc3OCC)cc12 [5-080]
herbicidal effect on rice flat sedge (E) (rice flat sedge; 370 g/ha): 2 (Herbicidal rate of 20% or more and less than 40%)
herbicidal effect on Chinese sprangletop (D) (Chinese sprangletop; 370 g/ha): 3 (Herbicidal rate of 40% or more and less than 70%)
Herbicidal effect, C: oval-leafed pondweed (oval-leafed pondweed; [16]): 0 (Herbicidal rate of 5% or less (almost no effect))
herbicidal effect on barnyard grass (H) (barnyard grass [7]; 370 g/ha): 3 (Herbicidal rate of 40% or more and less than 70%)
Herbicidal effect, A: late watergrass (late watergrass; [16]): 0 (Herbicidal rate of 5% or less (almost no effect))
Herbicidal effect, B: Japanese bulrush (Japanese bulrush; [16]): 3 (Herbicidal rate of 40% or more and less than 70%)

Cc1nn(C)c(=O)c(-c2c(-c3ccc(Cl)cc3)sc3cc(F)c(F)cc23)c1OCc1ccccc1 [5-083]
herbicidal effect on rice flat sedge (E) (rice flat sedge; 320 g/ha): 2 (Herbicidal rate of 20% or more and less than 40%)
herbicidal effect on Chinese sprangletop (D) (Chinese sprangletop; 320 g/ha): 0 (Herbicidal rate of 5% or less (almost no effect))
Herbicidal effect, C: oval-leafed pondweed (oval-leafed pondweed; [17]): 0 (Herbicidal rate of 5% or less (almost no effect))
herbicidal effect on barnyard grass (H) (barnyard grass [7]; 320 g/ha): 1 (Herbicidal rate of 5% or more and less than 20%)
Herbicidal effect, A: late watergrass (late watergrass; [17]): 0 (Herbicidal rate of 5% or less (almost no effect))
Herbicidal effect, B: Japanese bulrush (Japanese bulrush; [17]): 3 (Herbicidal rate of 40% or more and less than 70%)

Cc1nn(C)c(=O)c(-c2c(-c3ccc(OC(F)(F)F)cc3)sc3cc(F)c(F)cc23)c1O [5-105]
O: lambsquarters, herbicidal effect grade (lambsquarters [8]): 4 (Herbicidal rate of 70% or more and less than 90%)
N: redroot pigweed, herbicidal effect grade (redroot pigweed [9]): 3 (Herbicidal rate of 40% or more and less than 70%)
herbicidal effect on rice flat sedge (E) (rice flat sedge; 320 g/ha): 0 (Herbicidal rate of 5% or less (almost no effect))
M: velvetleaf, herbicidal effect grade (velvetleaf [10]): 2 (Herbicidal rate of 20% or more and less than 40%)
herbicidal effect on Chinese sprangletop (D) (Chinese sprangletop; 320 g/ha): 0 (Herbicidal rate of 5% or less (almost no effect))
Herbicidal effect, C: oval-leafed pondweed (oval-leafed pondweed; [17]): 0 (Herbicidal rate of 5% or less (almost no effect))
herbicidal effect on barnyard grass (H) (barnyard grass [1]; [18]): 5 (Herbicidal rate of 90% or more (almost completely withered))
herbicidal effect on southern crabgrass (F) (southern crabgrass [2]; [18]): 4 (Herbicidal rate of 70% or more and less than 90%)
herbicidal effect on barnyard grass (H) (barnyard grass [7]; 320 g/ha): 5 (Herbicidal rate of 90% or more (almost completely withered))
herbicidal effect on velvetleaf (M) (velvetleaf [3]; [18]): 4 (Herbicidal rate of 70% or more and less than 90%)
G: green foxtail, herbicidal effect grade (green foxtail [11]): 0 (Herbicidal rate of 5% or less (almost no effect))
herbicidal effect on lambsquarters (O) (lambsquarters [5]; [18]): 5 (Herbicidal rate of 90% or more (almost completely withered))
H: barnyard grass, herbicidal effect grade (barnyard grass [12]): 0 (Herbicidal rate of 5% or less (almost no effect))
herbicidal effect on green foxtail (G) (green foxtail [6]; [18]): 5 (Herbicidal rate of 90% or more (almost completely withered))
Herbicidal effect, A: late watergrass (late watergrass; [17]): 2 (Herbicidal rate of 20% or more and less than 40%)
Herbicidal effect, B: Japanese bulrush (Japanese bulrush; [17]): 0 (Herbicidal rate of 5% or less (almost no effect))
F: southern crabgrass, herbicidal effect grade (southern crabgrass [13]): 0 (Herbicidal rate of 5% or less (almost no effect))
